Here are results for 33 compounds from the METLIN SMRT retention time set (Domingo-Almenara et al. 2019).

A short description of the data set: gradient 5% acetonitrile 3 min, to 50% in 2 min, to 85% in 15 min, held 3 min, 100 µL/min. The conditions noted are these: column: Zorbax Extend-C18 2.1 x 50 mm; eluents: water / acetonitrile, 0.1% formic acid. The method in brief:
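The mobile phases were water and acetonitrile, each with 0.1% formic acid, pumped at 100 μL/min through a Zorbax Extend-C18 column (2.1 × 50 mm, 1.8 μm). Pure standards were injected as mixtures of ~100 molecules and detected by a quadrupole time-of-flight mass spectrometer in positive and negative ionization mode. Retention time came from computationally picked adduct peaks, each inspected by hand.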
In the case of `O=C(NCC1CCN(C(=O)c2ccccc2F)CC1)C(=O)Nc1ccon1`, the RP-LC retention time turned out to be 636 s.
Take `Cc1cc(C)c2[nH]c3c(c(=O)c2c1)CN(CC(=O)NCc1ccccc1F)CC3`: the RP-LC retention time worked out at 626 s.
As for `Cc1oc(-c2[nH]ncc2C(=O)N(C)C)cc1S(=O)(=O)Nc1ccc(F)cc1Cl`, the figure is 696 s.
As for `CC(C)c1noc(COC2CCN(C(=O)Cn3ccnc3)CC2)n1`, the figure is 592 s; as for `O=C(NCc1ccccc1)Nc1cccn2ncnc12`, 702 s.
The compound `O=C(Cn1c(C2CC(=O)N(C3CCCCC3)C2)nc2ccccc21)N1CCOCC1` (stereo not drawn) returned an RP-LC retention time of 630 s.
Take `CCOC(=O)c1ccc(N2C=C(C(=O)N3CCCC3)S(=O)(=O)c3ccc(Cl)cc32)cc1`: the RP-LC retention time came to 950 s.
As for `Cc1cc2nc(C(=O)Nc3cc(F)cc(F)c3)cc(C)n2n1`, the figure is 1050 s; as for `COc1cccc(Cn2nnc(C(=O)O)c2C(C)C)c1`, 694 s; as for `CCn1cc(C(=O)N[C@@H](C)C(=O)O)c(=O)c2cc3c(cc21)OCO3`, 631 s.
In the case of `COC(=O)c1ccccc1Nc1c(-c2ccc3c(c2)OCO3)nc2cnccn12` it was 932 s.
Regarding `Cc1nc(-c2cn(C(C)C)c3ncccc23)sc1C(=O)NCc1ccccc1F`, the RP-LC retention time is 1030 s.
In the case of `CCOc1ccc(N2C(=O)Nc3ccccc3C2(O)C(=O)NCCCN2CCCCC2)cc1` (stereo not drawn) it was 576 s.
For `CC(C)N1C(=O)C(C)(C(=O)Nc2ccccc2F)Oc2cccnc21` (stereo not drawn), the RP-LC retention time was determined as 973 s.
`O=C(CC1CCN(C(=O)c2ccc3oc(C4CC4)nc3c2)CC1)NC1CCCC1`: the RP-LC retention time came to 715 s.
Regarding `CCc1nnc2ccc(NC(=O)Nc3cccc(C)c3)cn12`, the RP-LC retention time was found to be 719 s.
`COCCNS(=O)(=O)c1ccc(-c2ccc(C)cc2)cc1` came in with an RP-LC retention time of 890 s.
Take `CC(C)Cn1c(=O)c2cc(C(=O)NC(C)c3cccs3)nn2c2ccccc21` (stereo not drawn): the RP-LC retention time stood at 1050 s.
For the compound `Cc1cc(-c2nnc(-c3ccc(F)cc3)o2)c(C)n1CC(=O)N1CCCCC1`, the RP-LC retention time was found to be 877 s.
As for `O=C(C1CC(=O)N(c2n[nH]c3cccc(F)c23)C1)N1CCN(c2ccccn2)CC1` (stereo not drawn), the figure is 582 s; as for `Cc1cccc(-c2nnc(SCc3cc(=O)n4ccsc4n3)o2)c1`, 821 s; as for `O=C(NCCc1c[nH]c2ccc(Cl)cc12)c1ccc(F)cc1-n1cnnn1`, 805 s.
On to `CCOC(=O)c1c(C)[nH]c(C(=O)N2CCC(CC(=O)NCc3ccc(OC(C)C)cc3)CC2)c1C`, for which the RP-LC retention time came out at 866 s.
In turn, `CC(=O)c1cc2c(cc1NC(=O)c1ccc(COc3ccccc3)o1)OCO2` displayed an RP-LC retention time of 1080 s.
For `CCn1cc(CN2CC(Oc3ccc(-c4noc(-c5ccncc5)n4)cc3)C2)cn1`, the RP-LC retention time was determined as 633 s.
With `CCOc1ccccc1CN1CCc2nc(N3CCN(c4ccccn4)CC3)ncc2C1`, the RP-LC retention time came to 583 s.
As for `CCCCN(C)C(=O)CCC1CCCN(c2cc(NCC)ncn2)C1` (stereo not drawn), the figure is 658 s; as for `CCc1nc2cc(-c3noc(-c4ccc(C)c(F)c4)n3)ccc2o1`, 1350 s.
`CCOC(=O)Cc1ccc(NC(=O)N2CCC3(CC2)Nc2cc(F)ccc2-n2cccc23)cc1` registered an RP-LC retention time of 1000 s.
As for `Cc1noc(-c2nn(C)c3c2CN(C(=O)COc2ccc(Cl)cc2)CC3)n1`, the figure is 791 s.
`Cc1cc(Cl)ccc1NC(=O)N1C[C@@H](F)C[C@H]1C(=O)N1CCc2ccccc2C1` registered an RP-LC retention time of 908 s.
For the compound `CC(C)NC(=O)N1CCC2(CC1)CCC(O)(CN1CCc3ccccc31)CC2`, the RP-LC retention time turned out to be 882 s.
With `COC1CCC12CCN(S(=O)(=O)c1ccc(C)cc1)CC2` (stereo not drawn), the RP-LC retention time is 1020 s.
